Row | Structure (SMILES) | melting point [°C]
1 | CCOC=C(C#N)S(=O)(=O)Cc1ccco1 | 98 to 100
2 | CCC1(C(=O)NC(C)c2ccc(Cl)cc2)C(C)C1(Cl)Cl (centres undefined) | 160
3 | COc1cccc(C=C(C)[N+](=O)[O-])c1 | 45 to 47
4 | COc1nn(CSP(=S)(OC)OC)c(=O)s1 | 39.5
5 | ON=CNc1ncccn1 | 184 to 186
6 | CCCCCCCCCCCCCCCC(=O)OCC=C(C)C=CC=C(C)C=CC1=C(C)CCCC1(C)C | 28.5
7 | Clc1ccc(-c2ccc(Br)nc2)cn1 | 244
8 | CCCOC(=O)c1cc(O)c(O)c(O)c1 | 148
9 | c1ccc2cc3c(cc2c1)CC1OC1C3 (centres undefined) | 159 to 160
10 | O=C(O)c1cc(F)c(F)c(F)c1 | 98
11 | Fc1ccc(I)cc1 | -20
12 | CC(=O)SC1CC2=CC(=O)CC(SC(C)=O)C2(C)C2CCC3(C)C(CCC3(C)O)C12 (centres undefined) | 206
13 | CCC1OC(=O)C(O)=C1C (centres undefined) | 27 to 30
14 | FC(F)(F)c1nn(CN2CCN(Cn3nc(C(F)(F)F)n(N=Cc4ccccc4)c3=S)CC2)c(=S)n1N=Cc1ccccc1 | 333
15 | O=C(O)C1CCOCC1 | 87 to 89
16 | COc1c(Br)cc(C)c2c1CCC2 | 30
17 | Cc1cc2ncn(C3OC(CO)C(O)C3O)c2cc1C (centres undefined) | 198
18 | ClC(COCC(Cl)C(Cl)(Cl)Cl)C(Cl)(Cl)Cl (centres undefined) | -50
19 | COc1ccc(-c2csc(/C(C#N)=N\Nc3ccncc3)n2)cc1 | 255
20 | CCOC(=O)c1sc2sc(C(=O)OCC)c(N)c2c1N | 200
21 | C=CCOc1cc(O)c(C(C)=O)c(O)c1 | 145 to 146

Row | Structure (SMILES) | melting point [°C]
22 | COCCN(C(=O)CCl)c1c(C)cccc1C | 46.3
23 | C/C=C(C)/C=C/C=C(C)C | -35.4
24 | COC(=O)CC(=O)c1cncc(Br)c1 | 88 to 93
25 | Cc1cc(O)cc2c1C(=O)CC(C)(C)O2 | 189 to 191
26 | Nc1cccc(S(=O)(=O)O)c1 | 300
27 | FC(=C(F)C(F)(F)F)C(F)(F)F | -129
28 | Cc1noc(C)c1-c1nc(CCl)no1 | 88 to 90
29 | OC1COC(Oc2ccc3cc(Br)ccc3c2)C(O)C1O (centres undefined) | 190 to 196
30 | O=C(O)c1ccc(O)nn1 | 246 to 247
31 | Nc1ncn(C2OC(CO)C(O)C2O)c(=O)n1 (centres undefined) | 229
32 | CC(C)N(C(=O)SCC(Cl)=CCl)C(C)C | 25
33 | O=C1/C(=C/c2ccc([N+](=O)[O-])cc2)SC(=S)N1CN(CCCl)CCCl | 284
34 | CC(C)OC(=O)N=NC(=O)OC(C)C | 3 to 5
35 | COc1ccc2c(c1)CCCN2 | 42.5
36 | NS(=O)(=O)c1ccc(S(=O)(=O)CCO)cc1 | 165
37 | OCCCc1nc2cc(C(F)(F)F)ccc2[nH]1 | 134 to 135
38 | O=C(O)CN(CC(=O)O)c1ccccc1OCCOc1ccccc1N(CC(=O)O)CC(=O)O | 177 to 179
39 | Cc1cc(C)cc(CC#N)c1 | 44
40 | CCCC1C(=O)C2(C)CCC1C2(C)C (centres undefined) | 128
41 | C=C[N+](=O)[O-] | -55.5
42 | CC(C)=C1OC(=O)N(c2cc(OC3CCCC3)c(Cl)cc2F)C1=O | 104

Row | Structure (SMILES) | melting point [°C]
43 | Cc1ccc([N+](=O)[O-])cc1S(=O)(=O)Cl | 44
44 | NC(=S)Cc1ccc(-c2csnn2)cc1 | 169 to 171
45 | CC1(C)C2CCC13CS(=O)(=O)N[C@H]3C2 (some centres undefined) | 181 to 185
46 | CC(=NO)c1ccco1 | 104 to 105
47 | CNC(=NCCSCc1nc[nH]c1C)NC#N | 141
48 | O=C1C2(CCCCC2)C(=O)C12CCCCC2 | 166
49 | O=C(Nc1cccc([N+](=O)[O-])c1)C(C(F)(F)F)C(F)(F)F | 200
50 | N#CC(c1ccc(Cl)nn1)c1c(Cl)cccc1Cl (centres undefined) | 124 to 131
51 | C1CCC(C(C2CCCCC2)C2CCCCC2)CC1 | 48
52 | COc1ccc(C#N)cc1[N+](=O)[O-] | 148 to 151
53 | CC1=NN(CN2CCCCC2)C(=O)/C1=N\Nc1cccnc1 | 177
54 | OCCN(CCO)CCCc1ccc(COc2ccccc2)cc1 | 63 to 64
55 | N#Cc1ccc(C=NNC(N)=S)cc1 | 243 to 247
56 | O=C(O)C1(O)CC1 | 108 to 110
57 | CC1CCCC(O)C1 (centres undefined) | -5.5
58 | Cc1n[nH]c(C)c1Cl | 118
59 | N#Cc1cccc(-c2cccs2)c1 | 58 to 60
60 | CCCCCc1ccc(NC(=O)c2ccc(C)cc2)cc1 | 129
61 | COCCOCCOCCOC | -45
62 | CC(CCC(=O)O)C1CCC2C3CC(O)C4=CC(O)CCC4(C)C3CCC12C (centres undefined) | 200 to 201
63 | CCCCCCCCCCCCCCCCC(C)CC (centres undefined) | 8

Row | Structure (SMILES) | melting point [°C]
64 | NC(=S)NCCCN1CCOCC1 | 129 to 131
65 | CCOC(=O)COc1cc(Cl)c(Cl)cc1Cl | 64
66 | CC1(C)CCCC(O)C1 (centres undefined) | 11.5
67 | CCOC(=O)C(N)=S | 63
68 | NCc1ccc(-c2ccsc2)cc1 | 116 to 117
69 | O=C(CN1CCNCC1)N1CCOCC1 | 63 to 65
70 | CC(=O)Oc1ccc(Cl)cc1 | 9
71 | O=C(Cl)c1sccc1Cl | 45 to 46
72 | Cc1ccc(I)cc1[N+](=O)[O-] | 60
73 | Nc1c(F)cc(F)cc1F | 35
74 | Nc1ccc(S(=O)(=O)F)cc1 | 68.5
75 | COc1cc2nc[nH]c(=O)c2cc1OC | 250
76 | CCCCNC | -75
77 | CS(=O)(=O)c1ccc(C(=O)C2C(=O)CCCC2=O)c(Cl)c1 | 139
78 | CC(=O)OCCOC(C)=O | -31
79 | Cc1cccc(O[Si]23OCCN(CCO2)CCO3)c1 | 166
80 | CC12COC(=O)CC1CCC1C2CCC2(C)C1CCC2(C)O (centres undefined) | 236
81 | FC(Cl)C(F)(F)Cl (centres undefined) | -78
82 | CC(=O)OC1CCC2C3CCC4CC=CCC4(C)C3CCC12C (centres undefined) | 93 to 94
83 | CCCCCOC(C)=O | -70.8

Results, then the compound that gave them:

Row | melting point [°C] | Structure (SMILES)
84 | 200 | Clc1nc2ccccc2[nH]1
85 | 341 | Cn1c(S(=O)(=O)O)nc2ccccc21
86 | 146 | NC(=O)c1nc(-c2ccccc2)n(-c2ccc(Cl)c(COCC(F)(F)C(F)(F)F)c2)n1
87 | 63 | CSc1ccc2ccccc2c1
88 | 146 | C/C(CC(C)c1ccc(C)cc1)=N\NC(N)=O (centres undefined)
89 | 153 to 154 | COC(=O)/C=C(/C(=O)OC)N(Nc1ccccc1N=Nc1ccccc1)c1ccccc1
90 | 59 to 63 | COc1cccc(CO)c1O
91 | 74 | O=C(O)C1Cc2ccccc21 (centres undefined)
92 | 151 | COc1cc(C(=O)O)cc(OC(C)=O)c1OC
93 | 151 to 152 | COc1ccc(C=C2N=C(c3ccccc3)OC2=O)cc1
94 | 39 to 41 | Cc1cc(Cl)c2ccccc2n1
95 | 77 | COC(=O)c1cc(I)ccc1O
96 | 134 to 136 | Cc1cccc2c1-c1nc3ccccc3nc1-2
97 | 166 | CC(=O)Oc1cn(C(C)=O)c2ccc(Br)c(Cl)c12
98 | 133 | COc1ccc(NC(=S)c2ccccc2)cc1
99 | 182 | CC(=O)NCC1CN(c2ccc(N3CCOCC3)c(F)c2)C(=O)O1 (centres undefined)
100 | 132 | CC(Cc1ccccc1)(C(=O)O)C(=O)O
101 | 163 to 164 | O=c1c(Cl)c(Cl)cnn1-c1ccccc1
102 | 60 to 75 | CCCCC(C=O)NC(=O)C(CC(C)C)NC(=O)OCc1ccccc1 (centres undefined)
103 | 128 | COc1ccc(NN=C2C(=O)OC(C)(C)OC2=O)cc1
104 | 239 to 242 | Cc1[nH]c2ccc(C(=O)O)cc2c1C
105 | 190 | O=C(O)CN(CC(=O)O)Cc1cc2c(c(O)c1O)C(=O)c1ccccc1C2=O
106 | 186 | COc1ccc(-c2ccc(S(=O)(=O)NCC(=O)O)cc2)cc1
107 | 99.5 | CN1C2CCC1CC(OC(=O)C(O)c1ccccc1)C2 (centres undefined)
108 | 103 to 105 | NNC(=O)c1ccccc1OC(F)(F)F
109 | 103 | c1ccc(-c2nc3ccccc3o2)cc1

Row | melting point [°C] | Structure (SMILES)
110 | 73 to 75 | COC(=O)C1Cc2ccccc2N1C(=O)OC(C)(C)C (centres undefined)
111 | 236 | COC(=O)C1=C(C)NC(=O)N(C=O)C1c1ccccc1 (centres undefined)
112 | 133 | CCCc1nn(-c2ccccc2)c(=O)n1C(N)=O
113 | 34 to 36 | COC(=O)[C@H](Cc1ccccc1)N=C=S
114 | 168 | O=C(O)c1ccccc1OP(=O)(O)O
115 | 119 | N#Cc1ccccc1OCC(O)CNCCNC(=O)Cc1ccc(O)cc1 (centres undefined)
116 | 140 | CC1=NN(c2ccccc2)C(=O)C1Cc1ccccc1O (centres undefined)
117 | 157 to 158 | Cc1nc2ccccn2c1CO
118 | 153 | CC(C)(C)OC(=O)N[C@H](Cc1ccc(C#N)cc1)C(=O)O
119 | 188 to 189 | Cc1nc(NC(=O)NS(=O)(=O)c2cccs2)nc(C)c1C
120 | 128 | CCOc1cccc2c(=O)c(=O)c12
121 | 242 | O=C(Nc1ccccc1)Nc1ccccc1
122 | 50 to 52 | CCOC(=O)c1c2ccccc2nn1C
123 | 110 to 114 | N[C@H](CO)[C@H](O)c1ccccc1
124 | 153 to 155 | O=C(O)C(C(=O)O)c1ccccc1
125 | 162 to 164 | COc1cc2c(cc1OC)C(c1ccc(F)cc1)N(C(C)=O)CC2 (centres undefined)
126 | 83.5 | CCc1nn(CCCN2CCN(c3cccc(Cl)c3)CC2)c(=O)n1CCOc1ccccc1
127 | 98 to 99 | Cc1c(C(=O)CBr)sc2ccccc12
128 | 168 to 169 | O=C(C=Cc1ccc(-c2ccccc2[N+](=O)[O-])o1)c1ccco1
129 | 276 | O=C1NN(c2ccccc2)C(=O)C1=CNc1ccccc1
130 | 63 to 64 | O=C(c1ccccc1)N1CCNCC1
131 | -19.8 | CCCCc1cccc2ccccc12
132 | 122 to 124 | Cc1oc(-c2ccc(Cl)cc2)cc1C(=O)Cl
133 | 92 | O=C(ON=C(Cc1ccccc1)c1ccccc1)c1ccccc1
134 | 62 to 63 | CS(=O)(=O)Oc1ccccc1

From a melting point compilation (Tetko et al.)
